We go through 17 molecules from US6559185B2, “Nitromethyl ketone compounds having aldose reduction inhibiting properties and methods for their use” (Merck Patent GmbH, priority 1997, dated 2003).

pIC50: −log10 of the molar value.

The target of one data set is T1, aldose reductase (Rattus norvegicus, UniProt P07943).
T1 construct: The aldose reductase used is obtained from male Wistar rat crystalline lenses; from tissue; host or cells: male Wistar rat crystalline lenses
Briefly: Study in vitro: inhibition of aldose reductase. The settings on record: enzyme from male Wistar rat crystalline lenses; L-glyceraldehyde, NADPH disappearance at 340 nm. The data set is classed as biochemical. Here is the method:
1) Study in Vitro: Inhibition of Aldose Reductase
The aldose reductase used is obtained from male Wistar rat crystalline lenses according to a modification of the method of S. HAYMAN et al. (Journal of Biological Chemistry 240, p., 877, 1965). The enzymatic extract is diluted in a phosphate buffer in the presence of NADPH and various concentrations of the test products. The reaction is initiated, with L-glyceraldehyde and the reaction rate is measured by monitoring the disappearance of NADPH by spectrophotometry at 340 nm. The reaction rate is calculated for each product concentration and then the concentration necessary for a 50% reduction in the reaction rate (IC50) is evaluated by linear interpolation.

Data set [1] relates to sorbitol level in the sciatic nerves. Kind of data set: Study in vivo: reduction of sorbitol accumulation in sciatic nerves of streptozotocin-diabetic rats. Particulars: 10 mg/kg/d oral, 4, 30 and 52 h after streptozotocin (60 mg/kg i.v.); sciatic nerve sorbitol 18 h after last dose; diabetic male Wistar rats. The protocol: 2) Study in Vivo: Reduction of Sorbitol Accumulation
200 to 250 g male Wistar rats are made diabetic by intravenous injection of streptozotocin (60 mg/kg). They then receive an oral treatment of the test products, in the form of a suspension, 4 hours, 30 hours and 52 hours after the injection of streptozotocin. Eighteen hours after the last oral treatment, the rats are stunned and decapitated and then their sciatic nerves are removed. After extraction, the sorbitol level in the nerves is measured according to the enzymatic method described by H. U. BERGMEYER (Methods of enzymatic analysis. H. U. BERGMEYER ed., Academic Press New York 3, p. 1323, 1974).
The percentage protection is calculated for each product relative to the batch of diabetic animals taking into account the sorbitol level in the sciatic nerves of nondiabetic rats.

With `Cc1ccccc1CC(=O)Nc1ccc(C(=O)C[N+](=O)[O-])c(Cl)c1` [Example 43, N-[3-Chloro-4-nitromethylcarbonylphenyl]-2-methylphenylacetamide], the pIC50 at aldose reductase was 8.15. Besides, in data set [1], the “Protection against increase in sorbitol after administration 10 mg/kg/d (%)” value (from here on “Protection against increase in sorbitol … (%)”) was determined as 70%.
The like results for `O=C(Cc1ccccc1Cl)Nc1ccc(C(=O)C[N+](=O)[O-])c(Cl)c1` [Example 28, 2-Chloro-N-[3-chloro-4-nitromethylcarbonylphenyl]phenylacetamide] were, in that order, 8.15 and 58%.
`CC(C(=O)Nc1ccc(C(=O)C[N+](=O)[O-])c(Cl)c1)c1ccccc1` (stereo not drawn) [Example 23, N-[3-Chloro-4-nitromethylcarbonylphenyl]-2-phenylpropaneamide] came in with a melting point of 136 to 137 °C. For the same molecule, the pIC50 against aldose reductase was 8.15. The “Protection against increase in sorbitol … (%)” value in data set [1] came to 40%.
`Cc1ccccc1CC(=O)Nc1ccc(C(=O)C[N+](=O)[O-])c(C)c1` [Example 59, N-[3-Methyl-4-nitromethylcarbonylphenyl]-2-methylphenylacetamide] gave a pIC50 against aldose reductase of 8.22. The “Protection against increase in sorbitol … (%)” value in data set [1] was determined as 52%.
`CCCCCC(=O)Nc1ccc(C(=O)C[N+](=O)[O-])c(Cl)c1` [Example 20, N-[3-chloro-4-nitromethylcarbonylphenyl]hexaneamide] yielded a melting point of 60 to 63 °C.
On the same count and under the same terms, the value for `Cc1ccccc1CC(=O)Nc1ccc(C(=O)C[N+](=O)[O-])cc1Br` [Example 60, N-[2-Bromo-4-nitromethylcarbonylphenyl]-2-methylphenylacetamide] was 125 to 127 °C.
Same read-out and setting: the value for `N#Cc1ccccc1C(=O)C[N+](=O)[O-]` was 147 to 149 °C; that for `CC(C)Oc1ccccc1C(=O)C[N+](=O)[O-]` was 78 to 80 °C.
On the same count and under the same terms, the value for `O=C(C[N+](=O)[O-])c1ccccc1C(F)(F)F` was 55 to 57 °C.
Molecule `O=C(Cc1ccccc1)Nc1ccc(C(=O)C[N+](=O)[O-])c(Cl)c1` [Example 24, N-[3-Chloro-4-nitromethylcarbonylphenyl]phenylacetamide] displayed a melting point of 121 to 124 °C. This molecule gave a pIC50 against aldose reductase of 8.15. Besides, in data set [1], the “Protection against increase in sorbitol … (%)” value is given as 45%.
`O=C(C[N+](=O)[O-])c1cc(NS(=O)(=O)c2ccccc2)ccc1Cl` [Example 38, N-[4-Chloro-3-nitromethylcarbonylphenyl]benzenesulfonamide] yielded a melting point of 152 to 154 °C.
Still for that read-out and setting: then `CC(=O)Nc1cccc(C(=O)C[N+](=O)[O-])c1Cl` [Example 34, N-[2-Chloro-3-nitromethylcarbonylphenyl]acetamide], with 140 to 142 °C.
On to `O=C(Cc1ccccc1C(F)(F)F)Nc1ccc(C(=O)C[N+](=O)[O-])c(Cl)c1` [Example 30, N-[3-Chloro-4-nitromethylcarbonylphenyl]-2-trifluoromethylphenylacetamide], for which the melting point lay within 160 to 162 °C. The pIC50 at aldose reductase is 8.15. In addition, the “Protection against increase in sorbitol … (%)” value in data set [1] was found to be 61%.
In turn, `CCc1ccccc1C(=O)C[N+](=O)[O-]` had a melting point of 62 to 63 °C.
`O=C(C[N+](=O)[O-])c1ccccc1OC(F)(F)F` [Example 1, Nitromethyl 2-Trifluoromethoxyphenyl Ketone] gave a pIC50 against aldose reductase of 7.39. Besides, in data set [1], the “Protection against increase in sorbitol … (%)” value came out at 70%.
`O=C(C[N+](=O)[O-])c1ccc(Sc2ccccc2)cc1Cl` [Example 64, Nitromethyl 2-Chloro-4-phenylthiophenyl Ketone] showed a melting point of 77 to 78 °C.
The same measure, in the same setting: then `CCOc1ccccc1C(=O)C[N+](=O)[O-]`, with 145 to 148 °C.
